IC50 data for one molecule are collected here from ChEMBL document CHEMBL5726922, “Chemokine CXCR1 and CXCR2 receptor antagonist compounds, and use thereof in the treatment of chemokine-mediated pathologies” (2019).

A word on the IC50: it is the midpoint of a concentration-inhibition curve.

Assay [1] has as its target T1, C-X-C chemokine receptor type 2 (Homo sapiens, UniProt P25025).
T1 sequence (P25025 whole entry): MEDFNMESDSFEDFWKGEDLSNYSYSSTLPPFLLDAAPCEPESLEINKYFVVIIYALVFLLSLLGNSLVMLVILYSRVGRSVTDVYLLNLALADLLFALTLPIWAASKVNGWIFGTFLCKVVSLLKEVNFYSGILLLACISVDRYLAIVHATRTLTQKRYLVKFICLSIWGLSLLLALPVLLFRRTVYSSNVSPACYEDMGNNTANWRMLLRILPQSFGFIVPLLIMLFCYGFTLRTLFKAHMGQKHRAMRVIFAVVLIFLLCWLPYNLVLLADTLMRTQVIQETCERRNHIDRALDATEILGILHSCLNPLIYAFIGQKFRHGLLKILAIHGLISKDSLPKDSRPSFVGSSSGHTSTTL
The experiment in a line: (§1) J. Immunol. 170: 2904-2911).To evaluate the direct interaction of the CXCR2 or CXCR1 receptor with β-arrestin 2, a test of β-arrestin 2 recruitment for CXCR2 or CXCR1 based on complementation of the β-galactosidase enzyme (Olson K. R., Eglen R. M., Beta-galactosidase complementation: a cell-based luminescent assay platform for drug discovery. Assay Drug Dev. Technol. 2007 February; 5(1); 137-44), as established by DiscoveRx Corporation was used. Stimulation of these two cell lines with CXCL8 (10 nM) induces the recruitment of β-arrestin 2, as indicated by a significant increase in the induction factor. All the CXCR2 antagonists are tested in a dose-dependent manner and the concentration corresponding to 50% inhibition of the response is determined (IC50=concentration of half-inhibition).β-Arrestin Recruitment Test: “PathHunter HEK293-CXCR2” or “U2OS hCXCR1 β-arrestin” cells (DiscoveRx Corporation) were seeded overnight at 10 000 cells/well (384-well format) in 20 μl of Opti MEM I medium. Preincubation with the antagonist or the vehicle for 30 minutes at 37° C. and 5% CO2 was followed by 60 minutes of stimulation with CXCL8 at 37° C. and 5% CO2. The cells were then placed at room temperature for 30 minutes. The PathHunter detection reagent (DiscoveRx Corporation) was added. […]. A general note: Arrestin recruitment assays detect the binding of arrestin to an activated receptor.

In assay [2] the target is T2, C-X-C chemokine receptor type 1 (Homo sapiens, UniProt P25024).
T2 sequence (P25024 whole entry): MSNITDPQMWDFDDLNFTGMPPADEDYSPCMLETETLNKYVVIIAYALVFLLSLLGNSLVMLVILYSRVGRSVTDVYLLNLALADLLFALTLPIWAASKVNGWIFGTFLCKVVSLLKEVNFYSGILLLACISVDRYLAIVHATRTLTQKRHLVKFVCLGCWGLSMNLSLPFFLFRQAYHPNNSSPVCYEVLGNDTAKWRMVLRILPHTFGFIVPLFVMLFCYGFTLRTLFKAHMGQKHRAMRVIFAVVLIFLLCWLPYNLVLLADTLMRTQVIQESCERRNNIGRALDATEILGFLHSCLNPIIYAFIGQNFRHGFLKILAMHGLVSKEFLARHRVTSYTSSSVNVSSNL
Described as §1.

As to `CC[C@@H](Nc1c(Nc2ccc(Cl)c(S(C)(=O)=NCCN(C)C)c2O)c(=O)c1=O)c1ccc(C)o1` (some centres not stated), the values for the IC50 in assay [1] and in assay [2] were above 20 nM and above 200 nM, respectively.
